Data reported in ChEMBL document CHEMBL1641406, “Discovery of a 1,5-dihydrobenzo[b][1,4]diazepine-2,4-dione series of inhibitors of HIV-1 capsid assembly” (Bioorg Med Chem Lett, 2011).
pEC50, pIC50: −log10 of the molar value.

How the values were obtained:
[1] = test system: Human immunodeficiency virus 1; test: Antiviral activity against HIV1 assessed as inhibition of capsid assembly; type: functional
[2] = test system: Human immunodeficiency virus 1; test: Antiviral activity against HIV1 infected in human C8166 cells assessed as inhibition of viral replication after 3 days by luciferase assay; type: functional, organism-based; conditions: Human immunodeficiency virus 1, C8166, 72 h
Rous sarcoma virus = test: Antiviral activity against Rous sarcoma virus assessed as inhibition of capsid assembly; type: functional
[3] = test system: Human immunodeficiency virus 1; test: Antiviral activity against HIV1 assessed as inhibition of capsid assembly at 1.4 uM; type: functional
[4] = test system: Human immunodeficiency virus 1; test: Antiviral activity against HIV1 assessed as inhibition of capsid assembly at 3.8 uM; type: functional
[5] = test system: Human immunodeficiency virus 1; test: Antiviral activity against HIV1 expressing wild type reverse transcriptase infected in human C8166 cells assessed as inhibition of viral replication after 3 days by luciferase assay; type: functional, organism-based; conditions: Human immunodeficiency virus 1, C8166, 72 h
[6] = test system: Human immunodeficiency virus 1; test: Antiviral activity against HIV1 expressing reverse transcriptase K103N/Y181C double mutant infected in human C8166 cells assessed as inhibition of viral replication after 3 days by luciferase assay; type: functional, organism-based; conditions: Human immunodeficiency virus 1, C8166, 72 h
[7] = Cytotoxicity against human C8166 cells; type: cell-based

| Compound | pIC50 [1] | pEC50 [2] | other results |
| --- | --- | --- | --- |
| CCCCN/C=C1\C(=O)Nc2ccc(Cl)cc2N(c2ccccc2)C1=O | 5.85 | 4.77 | pIC50 (Rous sarcoma virus): < 4.00 |
| O=C1CC(=O)Nc2cc(Cl)ccc2N1 | < 4.34 | – | – |
| COCCN/C=C1\C(=O)Nc2ccc(Cl)cc2NC1=O | 5.85 | – | – |
| O=C1Nc2ccc(Cl)cc2NC(=O)/C1=C/NCCO | 6.07 | – | – |
| O=C1Nc2ccc(Cl)cc2NC(=O)/C1=C/NCc1ccncc1 | 6.17 | – | – |
| COCCN/C=C1/C(=O)Nc2cc(Cl)ccc2N(C)C1=O | 6.23 | – | – |
| CCN1C(=O)/C(=C\NCCOC)C(=O)Nc2cc(Cl)ccc21 | 6.33 | – | – |
| COCCN/C=C1/C(=O)Nc2cc(Cl)ccc2N(c2ccc(C)cc2)C1=O | < 5.05 | – | – |
| COCCN/C=C1\C(=O)N(C)c2cccc(Cl)c2N(c2ccccc2)C1=O | 6.03 | – | – |
| COCCN/C=C1\C(=O)N(C)c2c(Cl)cccc2N(c2ccccc2)C1=O | 5.59 | – | – |
| COCCN/C=C1\C(=O)N(C)c2cc(Cl)ccc2N(c2ccccc2)C1=O | 5.80 | – | – |
| COCCN/C=C1\C(=O)N(C)c2ccc(C(F)(F)F)cc2N(c2ccccc2)C1=O | 6.05 | – | – |
| COCCN/C=C1\C(=O)N(C)c2ccc(C3CC3)cc2N(c2ccccc2)C1=O | 5.85 | – | – |
| COCCN/C=C1\C(=O)N(C)c2ccc(C(F)(F)F)cc2N(c2ccc(Cl)cc2)C1=O | 5.40 | – | – |
| COCCN/C=C1\C(=O)N(C)c2ccc(C(F)(F)F)cc2N(c2cccc(Cl)c2)C1=O | 5.11 | – | – |
| COCCN/C=C1\C(=O)N(C)c2ccccc2N(c2cccs2)C1=O | 6.30 | – | – |
| CN1c2ccc(Cl)cc2N(c2ccccc2)C(=O)c2c[nH]nc21 | 6.52 | 5.11 | – |
| CN1c2ccc(Cl)cc2N(c2ccccc2)C(=O)c2cn(C)nc21 | 6.15 | 5.15 | – |

| Compound | pIC50 [1] | pEC50 [2] | other results |
| --- | --- | --- | --- |
| CCn1cc2c(n1)N(C)c1ccc(Cl)cc1N(c1ccccc1)C2=O | 5.66 | – | – |
| COCCn1cc2c(n1)N(C)c1ccc(Cl)cc1N(c1ccccc1)C2=O | 5.82 | 4.80 | – |
| CN(C)CCn1cc2c(n1)N(C)c1ccc(Cl)cc1N(c1ccccc1)C2=O | 5.17 | 4.80 | – |
| CN1c2ccc(Cl)cc2N(c2ccccc2)C(=O)c2cn(Cc3ccc(CN4CCOCC4)cc3)nc21 | 6.00 | 6.05 | – |
| CN1c2ccc(Cl)cc2N(c2ccccc2)C(=O)c2cn(Cc3ccc(C(=O)O)cc3)nc21 | 6.22 | 5.70 | – |
| CN1c2ccc(Cl)cc2N(c2ccccc2)C(=O)c2cn(Cc3cccc(O)c3)nc21 | 6.22 | 5.33 | – |
| CN1c2ccc(Cl)cc2N(c2ccccc2)C(=O)c2[nH]cnc21 | 6.68 | 5.42 | – |
| CN1c2ccc(Cl)cc2N(c2ccccc2)C(=O)c2c1ncn2C | 6.52 | 5.54 | – |
| CCn1cnc2c1C(=O)N(c1ccccc1)c1cc(Cl)ccc1N2C | 6.66 | 5.28 | – |
| COCCn1cnc2c1C(=O)N(c1ccccc1)c1cc(Cl)ccc1N2C | 6.44 | 5.24 | – |
| CN1c2ccc(Cl)cc2N(c2ccccc2)C(=O)c2c1ncn2CCN | 6.43 | 5.32 | – |
| CN1c2ccc(Cl)cc2N(c2ccccc2)C(=O)c2c1ncn2Cc1cccc(O)c1 | 6.25 | 5.14 | – |
| CN1c2ccc(Cl)cc2N(c2ccccc2)C(=O)c2c1ncn2Cc1ccc(C(=O)O)cc1 | 6.37 | 5.21 | – |
| COCCNCc1ccc(Cn2cnc3c2C(=O)N(c2ccccc2)c2cc(Cl)ccc2N3C)cc1 | 6.77 | 6.05 | – |
| C=CCC1C(=O)N(C)c2ccc(C(F)(F)F)cc2N(c2ccccc2)C1=O (configuration not stated) | 4.80 | – | – |
| CN1C(=O)C(CCc2ccccc2)C(=O)N(c2ccccc2)c2cc(C(F)(F)F)ccc21 (configuration not stated) | – | – | inhibition at 1.4 µM [3]: 10% |
| CN1C(=O)C(Cc2ccccc2)C(=O)N(c2ccccc2)c2cc(C(F)(F)F)ccc21 (configuration not stated) | – | – | inhibition at 3.8 µM [4]: 40%; pEC50 [5]: < 4.70 |
| CN1C(=O)C(c2ccccc2)C(=O)N(c2ccccc2)c2cc(C(F)(F)F)ccc21 (configuration not stated) | 5.92 | – | pEC50 [5]: 5.52; pEC50 [6]: 5.57; CC50 [7]: > 20 µM |
